Assay results from US6069156A, “Indole derivatives as cGMP-PDE inhibitors” (Fujisawa Pharmaceutical Co., Ltd., priority 1995, dated 2000).
Structures can show the parent of a compound that is named as a salt. Where two headings read alike, the source gives them in different places.

Experiments:
cGMP-PDE = molecular target: T1, cGMP-PDE (Homo sapiens, UniProt O76074); experiment: cGMP-phosphodiesterase (PDE) Assay (human platelets); format: biochemical
T1 construct: cGMP-PDE was separated from other isozymes in human platelets; from tissue; host or cells: human platelets
Experimental: cGMP-phosphodiesterase (PDE) Assay
cGMP-PDE was separated from other isozymes in human platelets by a modification of the method of Thompson et. al. (Cyclic Nucleotide Phosphodiesterase (PDE), in Methods of Enzymatic analysis, Vol 4, p127-234, 1984). In enzyme inhibition assays, the test compounds were dissolved in 10% DMSO and then diluted with assay buffer (50 mM Tris-HCl, pH 8.0, 0.1 mM dithiothreitol, 2 mM EGTA and 10 u/ml snake venom), at final concentrations ranging from 10^-10 to 10^-6 M. Assays were performed at 0.1 μM substrate ([^3 H]-cGMP) concentration, at 30° C. for 10 minutes using enzyme dilutions which gave 10-20% hydrolysis of substrate. Each assay was initiated by addition of substrate and terminated by addition of anion exchange resin (Dowex 1-X8, 25 μg/mg) followed by centrifugation for 10 minutes (3000 rpm, at 4° C.). Radioactivity of supernatant (^3 H-GMP) was assayed by liquid scintillation counting.

[1] = system: Vascular smooth muscle cells (vSMCs); experiment: vSMC Proliferation ([3H]-thymidine, PDGF-stimulated); format: cell-based, male Wistar rats; settings: Rattus norvegicus, PDGF 10 ng/ml stimulation
Experimental: Vascular smooth muscle cells (vSMCs) were prepared from explants of the thoracic aorta of 10 week old male Wistar rats by a modification of the method of Ross (J. Cell Biol., 50: 172, 1971). They were cultured in DMEM containing 10% fetal calf serum, 1% penicillin G and 1% streptomycin at 37° C. in a 95% air, 5% CO2 humidified atmosphere. vSMCs were seeded in 24 well plates and cultured in the presence of 10% fetal calf serum for 3 days. Cell growth then was arrested by transfer to serum free DMEA. After 24 hours, each test compound or vehicle was added to medium for 1 hour, and then cells were stimulated by PDGF (10 ng/ml). After 24 hours of additional incubation, [^3 H]-thymidine (1 μCi/ml) was added during the final 4 hours of incubation time, and trichloracetic acid insoluble radioactivity was assayed by liquid scintillation counting.

[2] = 0.1 μM [3H]-cGMP, 30° C., 10 minutes, read-out: IC50

SMILES	IC50 (cGMP-PDE)	IC50 [1]	IC50 (cGMP-PDE; [2])
CCCc1c(C=O)c2ccc(C(=O)NS(=O)(=O)c3ccccc3)cc2n1Cc1ccccc1Cl [22-(6), 1-(2-Chlorobenzyl)-3-formyl-N-phenylsulfonyl-2-propylindole-6-carboxamide]	< 0.1 µM	< 0.1 µM	–
CCCc1c(C(=O)C(C)C)c2ccc(C(=O)NOC)cc2n1Cc1ccccc1Cl [24-(1), 1-(2-Chlorobenzyl)-3-isobutyryl-O-methyl-2-propylindole-6-carbohydroxamic acid]	< 0.1 µM	< 0.1 µM	–
CCCc1c(C(=O)C(C)C)c2ccc(C(N)=O)cc2n1Cc1ccccc1C(=O)OC [25-(2), 3-Isobutyryl-(2-methoxycarbonylbenzyl)-2-propylindole-6-carboxamide]	< 0.1 µM	–	–
CCCc1c(C(=O)C(C)C)c2ccc(C(N)=O)cc2n1Cc1cccc(Cl)c1 [27-(2), 1-(3-Chlorobenzyl)-3-isobutyryl-2-propylindole-6-carboxamide]	< 0.1 µM	–	–
CCCc1c(C(=O)C(C)C)c2ccc(C(N)=O)cc2n1Cc1ccc(Cl)s1 [27-(5), 1-[(5-Chlorothien-2-yl)methyl]-3-isobutyryl-2-propylindole-6-carboxamide]	< 0.1 µM	< 0.1 µM	–
CCCc1c(C(=O)C(C)C)c2ccc(C(N)=O)cc2n1Cc1ccccc1I [37-(3), 1-(2-Iodobenzyl)-3-isobutyryl-2-propylindole-6-carboxamide]	< 0.1 µM	–	–
CCCc1c(C(=O)C(C)C)c2ccc(C(N)=O)cc2n1Cc1ccccc1C#N [37-(6), 1-(2-Cyanobenzyl)-3-isobutyryl-2-propylindole-6-carboxamide]	< 0.1 µM	–	–
CCCc1c(C#N)c2ccc(C(N)=O)cc2n1Cc1ccccc1Cl [37-(11), 1-(2-Chlorobenzyl)-3-cyano-2-propylindole-6-carboxamide]	–	–	< 0.1 µM
COCc1c(C(=O)C(C)C)c2ccc(C(N)=O)cc2n1Cc1ccccc1Cl [37-(14), 1-(2-Chlorobenzyl)-3-isobutyryl-2-methoxymethylindole-6-carboxamide]	< 0.1 µM	< 0.1 µM	–
CCc1c(CC)n(Cc2ccccc2Cl)c2cc(C(N)=O)ccc12 [37-(17), 1-(2-Chlorobenzyl)-2,3-diethylindole-6-carboxamide]	–	–	< 0.1 µM
CCCc1c(C(=O)Cc2ccccc2)c2ccc(C(N)=O)cc2n1Cc1ccccc1Cl [38-(2), 1-(2-Chlorobenzyl)-3-phenylacetyl-2-propylindole-6-carboxamide]	< 0.1 µM	< 0.1 µM	–
N#Cc1ccc2c3c(n(Cc4ccccc4Cl)c2c1)C(=O)CCC3 [67-(2), 9-(2-Chlorobenzyl)-8-oxo-5,6,7,8-tetrahydrocarbazole-2-carbonitrile]	–	< 0.1 µM	< 0.1 µM
CCCc1c(C(=O)C=C(C)C)c2ccc(C(N)=O)cc2n1Cc1ccccc1Cl [73-(40), 1-(2-Chlorobenzyl)-3-(3-methyl-2-butenoyl)-2-propylindole-6-carboxamide]	< 0.1 µM	–	–
CCCc1c(C(=O)C(C)C)c2cc(C(N)=O)ccc2n1Cc1ccccc1Cl [75-(4), 1-(2-Chlorobenzyl)-3-isobutyryl-2-propylindole-5-carboxamide]	< 0.1 µM	–	–
CCCc1c(C(=O)CN2CCOCC2)c2ccc(C(N)=O)cc2n1Cc1ccccc1Cl [75-(10), 1-(2-Chlorobenzyl)-3-morpholinoacetyl-2-propylindole-6-carboxamide]	< 0.1 µM	–	–
CCCc1c(C(N)=O)c2ccc(C(N)=O)cc2n1Cc1ccccc1Cl [75-(15), 1-(2-Chlorobenzyl)-2-propylindole-3,6-dicarboxamide]	< 0.1 µM	–	–
Cc1c(C(=O)C(C)C)c2ccc(C(N)=O)cc2n1Cc1c(Cl)sc2ccccc12 [75-(21), 1-(2-Chlorobenzo[b]thiophen-3-ylmethyl)-3-isobutyryl-2-methylindole-6-carboxamide]	< 0.1 µM	–	–
CCCc1c(C(=O)C(C)C)c2ccc(C(N)=O)cc2n1Cc1ccc2sccc2c1 [75-(23), 1-(Benzo[b]thiophen-5-ylmethyl)-3-isobutyryl-2-propylindole-6-carboxamide]	< 0.1 µM	–	–
CCCc1c(C(=O)C(C)C)c2ccc(C(N)=O)cc2n1Cc1ccc2ccccc2c1 [75-(27), 3-Isobutyryl-2-propyl-1-(2-naphthylmethyl)indole-6-carboxamide]	< 0.1 µM	–	–

SMILES	IC50 (cGMP-PDE)	IC50 [1]	IC50 (cGMP-PDE; [2])
CC=Cc1c(C(=O)C(C)C)c2ccc(C(N)=O)cc2n1Cc1ccccc1Cl [75-(29), 1-(2-Chlorobenzyl)-3-isobutyryl-2-(1-propenyl)indole-6-carboxamide]	< 0.1 µM	< 0.1 µM	–
CCC(O)c1c(C(=O)C(C)C)c2ccc(C(N)=O)cc2n1Cc1ccccc1Cl (stereo not shown) [75-(30), 1-(2-Chlorobenzyl)-2-(1-hydroxypropyl)-3-isobutyrylindole-6-carboxamide]	< 0.1 µM	< 0.1 µM	–
CCc1c(Cl)n(Cc2ccccc2Cl)c2cc(C(N)=O)ccc12 [75-(35), 2-Chloro-1-(2-chlorobenzyl)-3-ethylindole-6-carboxamide]	–	–	< 0.1 µM
CC(=O)C=Cc1cn(Cc2ccccc2Cl)c2cc(C(N)=O)ccc12 [75-(38), 1-(2-Chlorobenzyl)-3-(3-oxo-1-butenyl)indole-6-carboxamide]	–	–	< 0.1 µM
NC(=O)c1ccc2c3c(n(Cc4ccccc4Cl)c2c1)C(=O)CC3 [75-(39), 4-(2-Chlorobenzyl)-3-oxo-1,2,3,4-tetrahydrocyclopent[b]indole-6-carboxamide]	–	–	< 0.1 µM
CCCc1c(C(=O)C(C)C)c2ccc(C(=O)OC)cc2n1Cc1ccccc1Cl [Example 4, Methyl 1-(2-chlorobenzyl)-3-isobutyryl-2-propylindole-6-carboxylate]	< 0.1 µM	–	–
CCCc1c(C(=O)CC)c2ccc(C(N)=O)cc2n1Cc1ccccc1Cl [Example 9, 1-(2-Chlorobenzyl)-3-propionyl-2-propylindole-6-carboxamide]	< 0.1 µM	< 0.1 µM	–
CCC(=O)c1c(CC)n(Cc2ccccc2Cl)c2cc(C(N)=O)ccc12 [Example 15, 1-(2-Chlorobenzyl) -2-ethyl-3-propionylindole-6-carboxamide]	< 0.1 µM	< 0.1 µM	–
CC(=O)c1c(CC(C)C)c2ccc(C(N)=O)cc2n1Cc1ccccc1Cl [Example 18, 2-Acetyl-1-(2-chlorobenzyl)-3-isobutylindole-6-carboxamide]	–	–	< 0.1 µM
CCC(=O)c1c(CC)c2ccc(C(N)=O)cc2n1Cc1ccccc1Cl [Example 21, 1-(2-Chlorobenzyl)-3-ethyl-2-propionylindole-6-carboxamide]	–	–	< 0.1 µM
CCCc1c(C(=O)C(C)C)c2ccc(C(=O)NO)cc2n1Cc1ccccc1Cl [Example 23, 1-(2-chlorobenzyl)-3-isobutyryl-2-propylindole-6-carbohydroxamic acid]	< 0.1 µM	< 0.1 µM	–
CCCc1c(C(=O)C(C)C)c2ccc(C(N)=O)cc2n1Cc1ccc(Cl)cc1 [Example 26, 1-(4-chlorobenzyl)-3-isobutyryl-2-propylindole-6-carboxamide]	< 0.1 µM	–	–
CCCc1c(C(=O)C(C)C)c2ccc(C(N)=O)cc2n1Cc1ccccn1 [Example 39, 3-isobutyryl-2-propyl-1-(2-pyridylmethyl)indole-6-carboxamide hydrochloride]	< 0.1 µM	–	–
CCCc1c(C(=O)C(C)C)c2ccc(NC=O)cc2n1Cc1ccccc1Cl [Example 58, 1-(2-chlorobenzyl)-6-formamido-3-isobutyryl-2-propylindole]	< 0.1 µM	–	–
CCCc1c(C(=O)CO)c2ccc(C(N)=O)cc2n1Cc1ccccc1Cl [Example 60, 1-(2-chlorobenzyl)-3-hydroxyacetyl-2-propylindole-6-carboxamide]	< 0.1 µM	< 0.1 µM	–
NC(=O)c1ccc2c(C(=O)O)cn(Cc3ccccc3Cl)c2c1 [Example 63, 6-carbamoyl-1-(2-chlorobenzyl)indole-3-carboxylic acid]	< 0.1 µM	–	–
CCc1c(C(O)C(C)C)c2ccc(C(N)=O)cc2n1Cc1ccccc1Cl (stereo not shown) [Example 69, 1-(2-Chlorobenzyl)-2-ethyl-3-(1-hydroxy-2-methylpropyl)indole-6-carboxamide]	–	–	< 0.1 µM
CCCc1c(C(C)=NO)c2ccc(C(N)=O)cc2n1Cc1ccccc1Cl [Example 70, 1-(2-chlorobenzyl)-3-(1-hydroxyiminoethyl)-2-propylindole-6-carboxamide]	–	–	< 0.1 µM
